In ChEMBL document CHEMBL1201862, “PubChem BioAssay data set” (2004):
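Dose response: 5 concentrations. Exposure: 48 h. Format: 96-well plates. Endpoint: linear interpolation; highest concentration if not reached. The concentration for 50% growth inhibition is given as GI50.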 Active and inactive are the calls of the source. No stated cut-off is given here; in the data, active = GI50 up to about 1.1 µM and inactive = higher.

Experiments:
Experiment in all cases: NCI-60 cell line screen, 48 h
786-0 = tested on: 786-0
A498 = tested on: A498
ACHN = tested on: ACHN
BT-549 = tested on: BT-549
CCRF-CEM = tested on: CCRF-CEM
DU-145 = tested on: DU-145
EKVX = tested on: EKVX
HCT-15 = tested on: HCT-15
Hs-578T = tested on: Hs-578T
LOX IMVI = tested on: LOX IMVI
MDA-MB-231 = tested on: MDA-MB-231
NCI/ADR-RES = tested on: NCI/ADR-RES
OVCAR-4 = tested on: OVCAR-4
RXF 393 = tested on: RXF 393
T47D = tested on: T47D
TK-10 = tested on: TK-10
UACC-257 = tested on: UACC-257
UACC-62 = tested on: UACC-62
SK-MEL-28 = tested on: SK-MEL-28

Measured: GI50

CSCCCNC(=O)c1csc(-c2csc(C(CNC(=O)OC(C)(C)C)CNC(=O)OC(C)(C)C)n2)n1
43.4 µM: HCT-15
inactive: 786-0 50.4 µM | A498 55.2 µM | ACHN 30.9 µM | BT-549 34.5 µM | CCRF-CEM 16.6 µM | DU-145 76.2 µM | EKVX 58.3 µM | Hs-578T 45.8 µM | LOX IMVI 39.8 µM | MDA-MB-231 57.8 µM | NCI/ADR-RES 24.8 µM | OVCAR-4 26.9 µM | RXF 393 68.5 µM | T47D 29.2 µM | TK-10 66.1 µM | UACC-257 40.6 µM | UACC-62 18.1 µM

CO[C@]12S[C@@H]3CCCC[C@@]31C(C)(C)C(=O)N2c1ccccc1
29.1 µM: HCT-15
inactive: 786-0 43.2 µM | A498 > 100 µM | ACHN 37.4 µM | BT-549 27.4 µM | CCRF-CEM 13.5 µM | DU-145 55.3 µM | EKVX 55.7 µM | Hs-578T 75 µM | LOX IMVI 32.6 µM | MDA-MB-231 42.2 µM | NCI/ADR-RES 23 µM | RXF 393 49.5 µM | SK-MEL-28 75.5 µM | T47D 30.7 µM | TK-10 55.5 µM | UACC-257 33.8 µM | UACC-62 49.8 µM

COc1cc(C(O)c2ccc3c(c2)OCO3)cc(OC)c1OC (stereo not drawn)
> 100 µM: HCT-15
inactive: 786-0 > 100 µM | A498 > 100 µM | ACHN > 100 µM | BT-549 > 100 µM | CCRF-CEM > 100 µM | DU-145 > 100 µM | EKVX > 100 µM | Hs-578T > 100 µM | LOX IMVI > 100 µM | MDA-MB-231 > 100 µM | NCI/ADR-RES > 100 µM | OVCAR-4 > 100 µM | SK-MEL-28 > 100 µM | T47D 37.1 µM | TK-10 > 100 µM | UACC-257 > 100 µM | UACC-62 > 100 µM

COc1ccc(-n2c(CCCC(=O)O)nc3c2C(=O)c2ccccc2C3=O)cc1
inactive: 786-0 > 100 µM | A498 > 100 µM | ACHN 71.3 µM | BT-549 8.79 µM | CCRF-CEM 36.3 µM | DU-145 92 µM | EKVX 60.7 µM | Hs-578T > 100 µM | LOX IMVI 54.8 µM | MDA-MB-231 63.5 µM | NCI/ADR-RES > 100 µM | OVCAR-4 53.3 µM | SK-MEL-28 > 100 µM | T47D 88.3 µM | TK-10 > 100 µM | UACC-257 27.8 µM | UACC-62 23.4 µM
44.5 µM: HCT-15

COc1ccc(/C=C/C(=O)C(C)(C)Br)cc1
2.62 µM: HCT-15
inactive: 786-0 3.48 µM | A498 20 µM | ACHN 8.55 µM | BT-549 1.92 µM | CCRF-CEM 1.59 µM | DU-145 14.3 µM | EKVX 15.1 µM | Hs-578T 16.3 µM | LOX IMVI 7.33 µM | MDA-MB-231 20 µM | NCI/ADR-RES 24 µM | RXF 393 1.4 µM | T47D 20.8 µM | TK-10 14.6 µM | UACC-257 15.5 µM | UACC-62 12.7 µM

Cc1ccc(Nc2nc(=O)c3c([nH]c4ccccc43)s2)cc1
inactive: 786-0 14.5 µM | A498 18.1 µM | ACHN 16.2 µM | BT-549 18.2 µM | CCRF-CEM 20.1 µM | DU-145 18.6 µM | EKVX 27.8 µM | Hs-578T 27.2 µM | LOX IMVI 13 µM | MDA-MB-231 17.1 µM | NCI/ADR-RES 14.2 µM | OVCAR-4 18.1 µM | SK-MEL-28 21.2 µM | T47D 15.4 µM | TK-10 11.3 µM | UACC-257 17.1 µM | UACC-62 3.84 µM
7.55 µM: HCT-15

O=C(CCc1ccc(O)c(O)c1)NCCc1cc(OCc2ccccc2)cc(OCc2ccccc2)c1
3.03 µM: HCT-15
inactive: 786-0 13.3 µM | A498 15.7 µM | ACHN 5.47 µM | BT-549 6.07 µM | CCRF-CEM 1.77 µM | DU-145 14.1 µM | EKVX 13.1 µM | Hs-578T 9.29 µM | LOX IMVI 10.4 µM | MDA-MB-231 16.6 µM | NCI/ADR-RES 13.1 µM | RXF 393 10.1 µM | SK-MEL-28 10.8 µM | T47D 16.4 µM | TK-10 16.3 µM | UACC-257 28.1 µM | UACC-62 14.9 µM

CC(C)(C)[Si](C)(C)OC[C@H](/C=C\CCCC(=O)O)NC1(c2ccccc2)c2ccccc2-c2ccccc21
inactive: 786-0 14 µM | A498 17.5 µM | ACHN 11.8 µM | BT-549 24.5 µM | DU-145 25.9 µM | EKVX 12.2 µM | Hs-578T 20 µM | LOX IMVI 12.9 µM | MDA-MB-231 14.3 µM | NCI/ADR-RES 9.75 µM | OVCAR-4 14.8 µM | RXF 393 10.2 µM | SK-MEL-28 16.7 µM | T47D 7.38 µM | TK-10 24.3 µM | UACC-257 10.2 µM | UACC-62 12.6 µM
11.2 µM: HCT-15
